Reference: the supplement of paper PMC10627819

Experiments:
B. subtilis 168 [1] = assay: Bliss interaction score (quartile over a dose matrix) (fitness difference); higher = more antagonism (negative = synergy)
Method in brief: (§1)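 The Bliss score was calculated by subtracting the expected fitness, the product of single-drug values, from the observed fitness. OD595 at entry into stationary phase, over the plate's robust no-drug mean and capped at 1, served as the fitness readout. Single-drug values were inferred from combination data, and scores are summarised by quartiles across technical, biological and donor/recipient replicates.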

S. aureus DSM 20231 = assay: as above
Method in brief: as §1

S. aureus Newman = assay: as above
Method in brief: as §1

S. pneumoniae D39V [2] = assay: as above
Method in brief: as §1

B. subtilis 168 [3] = assay: fitness (endpoint OD595 vs no drug) (fraction); higher = more growth
Method in brief: (§2)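 At 37 °C, bacteria in TSB, LB Lennox or CY were grown in 384-well plates from a starting OD595 of 0.01. OD595 was measured every 30 min for 14 h, with the first reading used as background. Fitness is the optical density at the switch to stationary phase as a fraction of the robust mean of no-drug control wells, capped at 1.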

S. pneumoniae D39V [4] = assay: as above
Method in brief: as §2
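For Bliss interaction score (quartile over a dose matrix) in this document: first quartile when negative (synergy) and third quartile when positive (antagonism).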

Cc1ncc([N+](=O)[O-])n1CCO [Metronidazole] + CCC(C)C1C(=O)NC(=C)C(=O)NC(C(=O)NC(CSCC(C(=O)N1)NC(=O)/C(=C/C)/NC(=O)C(C(C)CC)N)C(=O)NC2C(SCC(NC(=O)CNC(=O)C3CCCN3C2=O)C(=O)NC(CCCCN)C(=O)NC4C(SCC(NC(=O)CNC(=O)C(NC(=O)C(NC(=O)C(NC(=O)CNC4=O)C)CC(C)C)CCSC)C(=O)NC(CC(=O)N)C(=O)NC(CCSC)C(=O)NC(CCCCN)C(=O)NC5C(SCC6C(=O)NC(C(=O)NC(CSC(C(C(=O)N6)NC(=O)C(NC5=O)C)C)C(=O)NC(CO)C(=O)NC(C(C)CC)C(=O)NC(CC7=CN=CN7)C(=O)NC(C(C)C)C(=O)NC(=C)C(=O)NC(CCCCN)C(=O)O)CC8=CN=CN8)C)C)C)CC(C)C [Nisin]
Bliss interaction score (B. subtilis 168 [1]; main component drawn): 0.0914 | Bliss interaction score (S. aureus DSM 20231; main component drawn): 0.153 | Bliss interaction score (S. aureus Newman; main component drawn): 0.0893 | Bliss interaction score (S. pneumoniae D39V [2]; main component drawn): 0.0647 | fitness (B. subtilis 168 [3]; first compound 0.625 µg/mL, partner 0.5 µg/mL, one replicate, main component drawn): 0.831 | fitness (B. subtilis 168 [3]; first compound 0.625 µg/mL, partner 1 µg/mL, one replicate, main component drawn): 0.838 | fitness (B. subtilis 168 [3]; first compound 0.625 µg/mL, partner 1.25 µg/mL, one replicate, main component drawn): 0.909 | fitness (B. subtilis 168 [3]; first compound 0.625 µg/mL, partner 1.6 µg/mL, one replicate, main component drawn): 0.796 | fitness (B. subtilis 168 [3]; first compound 0.625 µg/mL, partner 2 µg/mL, one replicate, main component drawn): 0.571 | fitness (B. subtilis 168 [3]; first compound 0.625 µg/mL, partner 2.5 µg/mL, one replicate, main component drawn): 0.366 | fitness (B. subtilis 168 [3]; first compound 0.625 µg/mL, partner 3.2 µg/mL, one replicate, main component drawn): 0.0225 | fitness (B. subtilis 168 [3]; first compound 0.625 µg/mL, partner 4 µg/mL, one replicate, main component drawn): 0.61 | fitness (B. subtilis 168 [3]; first compound 0.625 µg/mL, partner 5 µg/mL, one replicate, main component drawn): 0.0544 | fitness (B. subtilis 168 [3]; first compound 0.625 µg/mL, partner 6.4 µg/mL, one replicate, main component drawn): 0.0311 | fitness (B. subtilis 168 [3]; first compound 0.625 µg/mL, partner 8 µg/mL, one replicate, main component drawn): 0.0261 | fitness (B. subtilis 168 [3]; first compound 0.625 µg/mL, partner 16 µg/mL, one replicate, main component drawn): 0.0228 | fitness (B. subtilis 168 [3]; first compound 1.25 µg/mL, partner 0.5 µg/mL, one replicate, main component drawn): 0.806 | fitness (B. subtilis 168 [3]; first compound 1.25 µg/mL, partner 1 µg/mL, one replicate, main component drawn): 0.797 | fitness (B. subtilis 168 [3]; first compound 1.25 µg/mL, partner 1.25 µg/mL, one replicate, main component drawn): 0.939 | fitness (B. subtilis 168 [3]; first compound 1.25 µg/mL, partner 1.6 µg/mL, one replicate, main component drawn): 0.809 | fitness (B. subtilis 168 [3]; first compound 1.25 µg/mL, partner 2 µg/mL, one replicate, main component drawn): 0.528 | fitness (B. subtilis 168 [3]; first compound 1.25 µg/mL, partner 2.5 µg/mL, one replicate, main component drawn): 0.666 | fitness (B. subtilis 168 [3]; first compound 1.25 µg/mL, partner 3.2 µg/mL, one replicate, main component drawn): 0.03 | fitness (B. subtilis 168 [3]; first compound 1.25 µg/mL, partner 4 µg/mL, one replicate, main component drawn): 0.534 | fitness (B. subtilis 168 [3]; first compound 1.25 µg/mL, partner 5 µg/mL, one replicate, main component drawn): 0.0891 | fitness (B. subtilis 168 [3]; first compound 1.25 µg/mL, partner 6.4 µg/mL, one replicate, main component drawn): 0.0509 | fitness (B. subtilis 168 [3]; first compound 1.25 µg/mL, partner 8 µg/mL, one replicate, main component drawn): 0.0271 | fitness (B. subtilis 168 [3]; first compound 1.25 µg/mL, partner 16 µg/mL, one replicate, main component drawn): 0.0235 | fitness (B. subtilis 168 [3]; first compound 2.5 µg/mL, partner 0.5 µg/mL, one replicate, main component drawn): 0.795 | fitness (B. subtilis 168 [3]; first compound 2.5 µg/mL, partner 1 µg/mL, one replicate, main component drawn): 0.803 | fitness (B. subtilis 168 [3]; first compound 2.5 µg/mL, partner 1.25 µg/mL, one replicate, main component drawn): 0.91 | fitness (B. subtilis 168 [3]; first compound 2.5 µg/mL, partner 1.6 µg/mL, one replicate, main component drawn): 0.755 | fitness (B. subtilis 168 [3]; first compound 2.5 µg/mL, partner 2 µg/mL, one replicate, main component drawn): 0.537 | fitness (B. subtilis 168 [3]; first compound 2.5 µg/mL, partner 2.5 µg/mL, one replicate, main component drawn): 0.616 | fitness (B. subtilis 168 [3]; first compound 2.5 µg/mL, partner 3.2 µg/mL, one replicate, main component drawn): 0.0513 | fitness (B. subtilis 168 [3]; first compound 2.5 µg/mL, partner 4 µg/mL, one replicate, main component drawn): 0.333 | fitness (B. subtilis 168 [3]; first compound 2.5 µg/mL, partner 5 µg/mL, one replicate, main component drawn): 0.149 | fitness (B. subtilis 168 [3]; first compound 2.5 µg/mL, partner 6.4 µg/mL, one replicate, main component drawn): 0.0479 | fitness (B. subtilis 168 [3]; first compound 2.5 µg/mL, partner 8 µg/mL, one replicate, main component drawn): 0.0234 | fitness (B. subtilis 168 [3]; first compound 2.5 µg/mL, partner 16 µg/mL, one replicate, main component drawn): 0.015 | fitness (S. pneumoniae D39V [4]; first compound 1.073 µg/mL, partner 3.2 µg/mL, main component drawn): 0.0352 | fitness (S. pneumoniae D39V [4]; first compound 1.073 µg/mL, partner 6.4 µg/mL, main component drawn): 0.0007 | fitness (S. pneumoniae D39V [4]; first compound 1.25 µg/mL, partner 0.4275 µg/mL, main component drawn): ≥ 1 | fitness (S. pneumoniae D39V [4]; first compound 1.25 µg/mL, partner 0.855 µg/mL, main component drawn): ≥ 1 | fitness (S. pneumoniae D39V [4]; first compound 1.25 µg/mL, partner 1.71 µg/mL, main component drawn): 0.127 | fitness (S. pneumoniae D39V [4]; first compound 2.145 µg/mL, partner 1.6 µg/mL, main component drawn): 0.809 | fitness (S. pneumoniae D39V [4]; first compound 2.145 µg/mL, partner 3.2 µg/mL, main component drawn): 0.0201 | fitness (S. pneumoniae D39V [4]; first compound 2.145 µg/mL, partner 6.4 µg/mL, main component drawn): 0 | fitness (S. pneumoniae D39V [4]; first compound 2.5 µg/mL, partner 0.4275 µg/mL, main component drawn): ≥ 1 | fitness (S. pneumoniae D39V [4]; first compound 2.5 µg/mL, partner 0.855 µg/mL, main component drawn): ≥ 1 | fitness (S. pneumoniae D39V [4]; first compound 2.5 µg/mL, partner 1.71 µg/mL, main component drawn): 0.121 | fitness (S. pneumoniae D39V [4]; first compound 4.29 µg/mL, partner 1.6 µg/mL, main component drawn): 0.747 | fitness (S. pneumoniae D39V [4]; first compound 4.29 µg/mL, partner 3.2 µg/mL, main component drawn): 0.0174 | fitness (S. pneumoniae D39V [4]; first compound 4.29 µg/mL, partner 6.4 µg/mL, main component drawn): 0 | fitness (S. pneumoniae D39V [4]; first compound 5 µg/mL, partner 0.4275 µg/mL, main component drawn): 0.968 | fitness (S. pneumoniae D39V [4]; first compound 5 µg/mL, partner 0.855 µg/mL, main component drawn): ≥ 1 | fitness (S. pneumoniae D39V [4]; first compound 5 µg/mL, partner 1.71 µg/mL, main component drawn): 0.1

C[C@H]1c2cccc(O)c2C(=O)C2=C(O)[C@]3(O)C(=O)C(C(N)=O)=C(O)[C@@H](N(C)C)[C@@H]3[C@@H](O)[C@@H]21 [Doxycycline] + C[C@@H]1O[C@@H]1P(=O)(O)O [Fosfomycin]
Bliss interaction score (B. subtilis 168 [1]): 0.131 | Bliss interaction score (S. aureus DSM 20231): -0.153 | Bliss interaction score (S. aureus Newman): -0.113 | Bliss interaction score (S. pneumoniae D39V [2]): -0.096 | fitness (B. subtilis 168 [3]; first compound 0.02 µg/mL, partner 1.562 µg/mL): 0.752 | fitness (B. subtilis 168 [3]; first compound 0.02 µg/mL, partner 3.124 µg/mL): 0.645 | fitness (B. subtilis 168 [3]; first compound 0.02 µg/mL, partner 6.248 µg/mL): 0.556 | fitness (B. subtilis 168 [3]; first compound 0.04 µg/mL, partner 1.562 µg/mL): 0.699 | fitness (B. subtilis 168 [3]; first compound 0.04 µg/mL, partner 3.124 µg/mL): 0.56 | fitness (B. subtilis 168 [3]; first compound 0.04 µg/mL, partner 6.248 µg/mL): 0.419 | fitness (B. subtilis 168 [3]; first compound 0.08 µg/mL, partner 1.562 µg/mL): 0.5 | fitness (B. subtilis 168 [3]; first compound 0.08 µg/mL, partner 3.124 µg/mL): 0.364 | fitness (B. subtilis 168 [3]; first compound 0.08 µg/mL, partner 6.248 µg/mL): 0.253 | fitness (S. pneumoniae D39V [4]; first compound 0.003875 µg/mL, partner 1.25 µg/mL, one replicate): 0.969 | fitness (S. pneumoniae D39V [4]; first compound 0.003875 µg/mL, partner 2.5 µg/mL, one replicate): 0.883 | fitness (S. pneumoniae D39V [4]; first compound 0.003875 µg/mL, partner 5 µg/mL, one replicate): 0.753 | fitness (S. pneumoniae D39V [4]; first compound 0.00775 µg/mL, partner 1.25 µg/mL, one replicate): 0.97 | fitness (S. pneumoniae D39V [4]; first compound 0.00775 µg/mL, partner 2.5 µg/mL, one replicate): 0.915 | fitness (S. pneumoniae D39V [4]; first compound 0.00775 µg/mL, partner 5 µg/mL, one replicate): 0.814 | fitness (S. pneumoniae D39V [4]; first compound 0.0155 µg/mL, partner 1.25 µg/mL): 0.894 | fitness (S. pneumoniae D39V [4]; first compound 0.0155 µg/mL, partner 2.5 µg/mL): 0.862 | fitness (S. pneumoniae D39V [4]; first compound 0.0155 µg/mL, partner 5 µg/mL): 0.791 | fitness (S. pneumoniae D39V [4]; first compound 0.031 µg/mL, partner 1.25 µg/mL): 0.799 | fitness (S. pneumoniae D39V [4]; first compound 0.031 µg/mL, partner 2.5 µg/mL): 0.804 | fitness (S. pneumoniae D39V [4]; first compound 0.031 µg/mL, partner 5 µg/mL): 0.742
